This is an account of results in patent US12448388B2, “PRMT5 inhibitors and uses thereof” (Gilead Sciences, Inc., priority 2023, dated 2025).

Like-named read-outs stand apart in the source and are kept apart here. Some results are limits rather than exact numbers.

For the assay, the system named is HCT116 MTAP-deleted cell lines. The assay is described as follows: Cell viability assay (CellTiter-Glo, 7 days), HCT116 MTAP-deleted. Format: cell-based. The conditions noted are these: Homo sapiens, HCT-116. An outline of the steps:
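HCT116 MTAP-deleted and wild-type cells exposed to serially diluted compound for 7 days at 37 °C, 5% CO2. Viability read by CellTiter-Glo luminescence; CC50 derived per line, with selectivity comparing WT to MTAP-deleted, limited solubility can inflate values marked *.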
A general note: In ATP-based viability assays light output follows the ATP content of the culture.

Where [1] appears, read: cell viability, HCT116 MTAP-deleted, class symbols, read-out: CC50.

Turning to `CN(C(=O)c1cc2c(cc1F)nc(N)c1cncn12)[C@@H]1COc2cc(-c3cnn(C)c3)ccc21` [Ff-214, (S)-4-amino-7-fluoro-N-methyl-N-(6-(1-methyl-1H-pyrazol-4-yl)-2,3-dihydrobenzofuran-3-yl)imidazo[1,5-a]quinoxaline-8-carboxamide], under setting [1], the CC50 is less than 100 nM. `CC(C)N(Cc1ccc(-c2ccnn2C(F)(F)F)cc1F)C(=O)c1cc2c(cc1F)nc(N)c1cncn12` [Ff-216]: the half-maximal cytotoxic concentration (CC50) under setting [1] is less than 100 nM.

`CC(C)N(Cc1ccc(-c2ccnn2C)cc1F)C(=O)c1cc2c(cc1F)nc(N)c1cncn12` [Ff-217, 4-amino-7-fluoro-N-(2-fluoro-4-(1-methyl-1H-pyrazol-5-yl)benzyl)-N-isopropylimidazo[1,5-a]quinoxaline-8-carboxamide]: under setting [1], the half-maximal cytotoxic concentration (CC50) was less than 100 nM. Same read-out and setting: the value for `Nc1nc2cc(F)c(C(=O)N(Cc3ccc(-c4ccnn4C(F)(F)F)cc3F)C34CC(C3)C4)cc2n2cncc12` [Ff-218, 4-amino-N-(bicyclo[1.1.1]pentan-1-yl)-7-fluoro-N-(2-fluoro-4-(1-(trifluoromethyl)-1H-pyrazol-5-yl)benzyl)imidazo[1,5-a]quinoxaline-8-carboxamide] was less than 100 nM; that for `Cn1nccc1-c1ccc(CN(C(=O)c2cc3c(cc2F)nc(N)c2cncn23)C23CC(C2)C3)c(F)c1` [Ff-219, 4-amino-N-(bicyclo[1.1.1]pentan-1-yl)-7-fluoro-N-(2-fluoro-4-(1-methyl-1H-pyrazol-5-yl)benzyl)imidazo[1,5-a]quinoxaline-8-carboxamide] was less than 100 nM; that for `Cn1cc(N(Cc2ccc(-c3cnn(C(F)(F)F)c3)cc2F)C(=O)c2cc3c(cc2F)nc(N)c2cncn23)cn1` [Ff-220, 4-amino-7-fluoro-N-(2-fluoro-4-(1-(trifluoromethyl)-1H-pyrazol-4-yl)benzyl)-N-(1-methyl-1H-pyrazol-4-yl)imidazo[1,5-a]quinoxaline-8-carboxamide] was less than 100 nM. Same read-out and setting: the value for `Cn1cc(N(Cc2ccc(-c3cnn(C(F)F)c3)cc2F)C(=O)c2cc3c(cc2F)nc(N)c2cncn23)cn1` [Ff-221, 4-amino-N-(4-(1-(difluoromethyl)-1H-pyrazol-4-yl)-2-fluorobenzyl)-7-fluoro-N-(1-methyl-1H-pyrazol-4-yl)imidazo[1,5-a]quinoxaline-8-carboxamide] was less than 100 nM. Turning to `Nc1nc2cc(F)c(C(=O)N3CC(F)(F)CCC3c3ccc(C(F)(F)F)cn3)cc2n2cncc12` (stereo not drawn) [Ff-222, (4-amino-7-fluoroimidazo[1,5-a]quinoxalin-8-yl)(5,5-difluoro-2-(5-(trifluoromethyl)pyridin-2-yl)piperidin-1-yl)methanone], under setting [1], the CC50 is less than 100 nM.

As for `Nc1nc2cc(F)c(C(=O)N3CCC(F)(F)CC3c3ccc(C(F)(F)F)cn3)cc2n2cncc12` (stereo not drawn) [Ff-223, (4-amino-7-fluoroimidazo[1,5-a]quinoxalin-8-yl)(4,4-difluoro-2-(5-(trifluoromethyl)pyridin-2-yl)piperidin-1-yl)methanone], under setting [1], the cytotoxic concentration (CC50) lay within 100 to 1000 nM. Turning to `C[C@@H]1CCN(C(=O)c2cc3c(cc2F)nc(N)c2cncn23)C(c2ccc(C(F)(F)F)cn2)C1` (stereo partly drawn) [Ff-224, (4-amino-7-fluoroimidazo[1,5-a]quinoxalin-8-yl)((4R)-4-methyl-2-(5-(trifluoromethyl)pyridin-2-yl)piperidin-1-yl)methanone], the CC50 under setting [1] fell in the range of 100 to 1000 nM. In the case of `Nc1nc2cc(F)c(C(=O)N3CCC4(CC4)CC3c3ccc(C(F)(F)F)cn3)cc2n2cncc12` (stereo not drawn) [Ff-225, (4-amino-7-fluoroimidazo[1,5-a]quinoxalin-8-yl)(5-(5-(trifluoromethyl)pyridin-2-yl)-6-azaspiro[2.5]octan-6-yl)methanone], the CC50 was in the range of 100 to 1000 nM.

Take `Nc1nc2cc(F)c(C(=O)N(Cc3ccc(C(F)(F)F)cc3F)c3ncco3)cc2n2cncc12` [Ff-226, 4-amino-7-fluoro-N-(2-fluoro-4-(trifluoromethyl)benzyl)-N-(oxazol-2-yl)imidazo[1,5-a]quinoxaline-8-carboxamide]: the CC50 under setting [1] is less than 100 nM.

`Nc1nc2cc(F)c(C(=O)N(Cc3ccc(C(F)(F)F)cc3F)c3cnsc3)cc2n2cncc12` [Ff-227, 4-amino-7-fluoro-N-(2-fluoro-4-(trifluoromethyl)benzyl)-N-(isothiazol-4-yl)imidazo[1,5-a]quinoxaline-8-carboxamide]: the CC50 under setting [1] is less than 100 nM. As to `CN(C(=O)c1cc2c(cc1F)nc(N)c1cncn12)[C@@H]1COc2cc(-c3ccc(C(F)(F)F)nc3)ccc21` [Ff-229, (S)-4-amino-7-fluoro-N-methyl-N-(6-(6-(trifluoromethyl)pyridin-3-yl)-2,3-dihydrobenzofuran-3-yl)imidazo[1,5-a]quinoxaline-8-carboxamide], the half-maximal cytotoxic concentration (CC50) under setting [1] was less than 100 nM. Still for that read-out and setting: in the case of `CN(C(=O)c1cc2c(cc1F)nc(N)c1cncn12)[C@@H]1COc2cc(-c3ccc(C(F)(F)F)cc3)ccc21` [Ff-230, (S)-4-amino-7-fluoro-N-methyl-N-(6-(4-(trifluoromethyl)phenyl)-2,3-dihydrobenzofuran-3-yl)imidazo[1,5-a]quinoxaline-8-carboxamide] it was 100 to 1000 nM. The same measure, in the same setting: the value for `CN(C(=O)c1cc2c(cc1F)nc(N)c1cncn12)[C@@H]1COc2cc(-c3csc(C(F)(F)F)n3)ccc21` [Ff-231, (S)-4-amino-7-fluoro-N-methyl-N-(6-(2-(trifluoromethyl)thiazol-4-yl)-2,3-dihydrobenzofuran-3-yl)imidazo[1,5-a]quinoxaline-8-carboxamide] was 100 to 1000 nM; that for `CN(C(=O)c1cc2c(cc1F)nc(N)c1cncn12)[C@@H]1COc2cc(-c3cnc(C(F)(F)F)s3)ccc21` [Ff-232, (S)-4-amino-7-fluoro-N-methyl-N-(6-(2-(trifluoromethyl)thiazol-5-yl)-2,3-dihydrobenzofuran-3-yl)imidazo[1,5-a]quinoxaline-8-carboxamide] was less than 100 nM. Still for that read-out and setting: the value for `CN(C(=O)c1cc2c(cc1F)nc(N)c1cncn12)[C@@H]1COc2cc(-c3cnc(C(F)F)s3)ccc21` [Ff-233, (S)-4-amino-N-(6-(2-(difluoromethyl)thiazol-5-yl)-2,3-dihydrobenzofuran-3-yl)-7-fluoro-N-methylimidazo[1,5-a]quinoxaline-8-carboxamide] was less than 100 nM; that for `Nc1nc2cc(F)c(C(=O)N3CCO[C@@H]4Cc5cc(-c6cnn(C(F)(F)F)c6)ccc5[C@@H]43)cc2n2cncc12` [Ff-234, (4-amino-7-fluoroimidazo[1,5-a]quinoxalin-8-yl)((4aS,9aR)-7-(1-(trifluoromethyl)-1H-pyrazol-4-yl)-2,3,9,9a-tetrahydroindeno[2,1-b][1,4]oxazin-4(4aH)-yl)methanone] was 100 to 1000 nM.

On to `Nc1nc2cc(F)c(C(=O)N3CCO[C@@H]4Cc5cc(-c6cnn(C(F)F)c6)ccc5[C@@H]43)cc2n2cncc12` [Ff-235, (4-amino-7-fluoroimidazo[1,5-a]quinoxalin-8-yl)((4aS,9aR)-7-(1-(difluoromethyl)-1H-pyrazol-4-yl)-2,3,9,9a-tetrahydroindeno[2,1-b][1,4]oxazin-4(4aH)-yl)methanone], for which the CC50 under setting [1] was less than 100 nM. Same read-out and setting: in the case of `Nc1nc2cc(F)c(C(=O)N3CCO[C@@H]4Cc5cc(C6CC6)ccc5[C@@H]43)cc2n2cncc12` [Ff-236, (4-amino-7-fluoroimidazo[1,5-a]quinoxalin-8-yl)((4aS,9aR)-7-cyclopropyl-2,3,9,9a-tetrahydroindeno[2,1-b][1,4]oxazin-4(4aH)-yl)methanone] it was 100 to 1000 nM; in that of `CN(C(=O)c1cc2c(cc1F)nc(N)c1cncn12)[C@@H]1COc2cc(-c3csc(C(F)F)n3)ccc21` [Ff-237, (S)-4-amino-N-(6-(2-(difluoromethyl)thiazol-4-yl)-2,3-dihydrobenzofuran-3-yl)-7-fluoro-N-methylimidazo[1,5-a]quinoxaline-8-carboxamide], less than 100 nM. Still for that read-out and setting: the value for `CN(C(=O)c1cc2c(cc1F)nc(N)c1cncn12)[C@@H]1COc2cc(-c3ccc(C(F)(F)F)cn3)ccc21` [Ff-238, (S)-4-amino-7-fluoro-N-methyl-N-(6-(5-(trifluoromethyl)pyridin-2-yl)-2,3-dihydrobenzofuran-3-yl)imidazo[1,5-a]quinoxaline-8-carboxamide] was less than 100 nM. The same measure, in the same setting: in the case of `Nc1nc2cc(F)c(C(=O)N3CCO[C@@H]4Cc5cc(-c6ccc(C(F)(F)F)nc6)ccc5[C@@H]43)cc2n2cncc12` [Ff-239, (4-amino-7-fluoroimidazo[1,5-a]quinoxalin-8-yl)((4aS,9aR)-7-(6-(trifluoromethyl)pyridin-3-yl)-2,3,9,9a-tetrahydroindeno[2,1-b][1,4]oxazin-4(4aH)-yl)methanone] it was less than 100 nM; in that of `Nc1nc2cc(F)c(C(=O)N3CCO[C@@H]4Cc5cc(-c6ccc(C(F)(F)F)cc6)ccc5[C@@H]43)cc2n2cncc12` [Ff-240, (4-amino-7-fluoroimidazo[1,5-a]quinoxalin-8-yl)((4aS,9aR)-7-(4-(trifluoromethyl)phenyl)-2,3,9,9a-tetrahydroindeno[2,1-b][1,4]oxazin-4(4aH)-yl)methanone], 100 to 1000 nM.

Turning to `C[C@H]1CN(C(=O)c2ccc3nc(N)c4cncn4c3c2)[C@H]2c3cc(F)c(C(F)(F)F)cc3C[C@H]2O1` [Ff-246, (4-aminoimidazo[1,5-a]quinoxalin-8-yl)((2S,4aS,9aR)-6-fluoro-2-methyl-7-(trifluoromethyl)-2,3,9,9a-tetrahydroindeno[2,1-b][1,4]oxazin-4(4aH)-yl)methanone], the 50% cytotoxic concentration (CC50) under setting [1] was less than 100 nM. On the same count and under the same terms, the value for `C[C@H]1CN(C(=O)c2cc3c(cn2)nc(N)c2cncn23)[C@H]2c3cc(F)c(C(F)(F)F)cc3C[C@H]2O1` [Ff-247, (4-aminoimidazo[1,5-a]pyrido[3,4-e]pyrazin-8-yl)((2S,4aS,9aR)-6-fluoro-2-methyl-7-(trifluoromethyl)-2,3,9,9a-tetrahydroindeno[2,1-b][1,4]oxazin-4(4aH)-yl)methanone] was less than 100 nM.

One may read the CC50 as the concentration that lowers cell viability or growth by half.
